Data on 14 molecules can be found in patent US20110124634A1, “BIOACTIVE COMPOUNDS FOR TREATMENT OF CANCER AND NEURODEGENERATIVE DISEASES” (PONIARD PHARMACEUTICALS, INC., priority 2008, published 2011).

The structures appear in SMILES notation. Read-outs that look alike come from different tables or passages of the source. Where only a bound is given, the exact number is not on record here.

Usually IC50 stands for the concentration at which inhibition is half-maximal.

What all share (type): cell-based
In test [1] the test system is HSP90 client protein Her2 in SKBR-3 cells. In words: Her-2 degradation assay (Her-2 ELISA) in SKBr-3 cells. As to conditions: Homo sapiens, 18 hours. How it is done:
Most of the compounds synthesized were evaluated for their ability to induce degradation of the HSP90 client protein Her2 in SKBR-3 cells. Selected compounds were evaluated in a fluorescence polarization (FP) assay for their affinity to HSP90.
SKBr-3 cells grown in McCoy's 5a Medium supplemented with 10% fetal bovine serum (FBS) were plated into 12-well plates at 50% confluency. Increasing concentrations of inhibitors were added 24 hours later (cells are 65-70% confluent) and incubated overnight for 18 hours. The wells were washed with 2 ml of phosphate buffered saline (PBS), and 50 ul of trypsin was added to each well. After trypsinization was complete, 150 ul of FBS was added to each well. Then 200 ul of cells were transferred to 96-well plates and plates were centrifuged at 1200 rpm for 2 minutes using a tabletop centrifuge. The cells were washed once with 250 ul PBS before being lysed with 100 ul of 50 mM Tris (pH 7.4), 0.1% NP-40 lysis buffer. Protein concentrations of clarified lysates were determined using the BCA Assay (Calbiochem) according to the manufacturer's instructions. 2 ug of each lysate was analyzed in the human sp 185 Her-2 ELISA (Bender Medsystems) according to the manufacturer's instructions. ELISA plates were read at 450 nm using a multiwell plate spectrophotometer. Background was determined by measuring the Abs 450 nm of wells with no lysate added. The background value was subtracted from all values. Absorbance 450 nm values for each inhibitor were plotted against the log 10 inhibitor concentration, and IC50 values were calculated using a nonlinear least-square curve fitting program in Prism 5.
A general note: ELISA stands for enzyme-linked immunosorbent assay.

The test system of the next test is MCF-7. In words: MTS assay (cytotoxicity), growth inhibition of MCF-7. As to conditions: Homo sapiens, MCF7, 120 h. The procedure:
(§1) Cells were seeded in 96-well plates at 2000 cells/well in a final culture volume of 100 ul for 24 hours before the addition of 25 ul of increasing concentrations of inhibitors that was incubated for 5 days. Viable cell number was determined using the CellTiter 96 AQueous One Solution Cell Proliferation Assay (Promega). Plates were read at 490 nm absorbance 2-4 hours after addition of the MTS reagent using a multiwell plate spectrophotometer. Background was determined by measuring the Abs 490 nm of cell culture medium and MTS in the absence of cells. The background value was subtracted from all values. Absorbance 490 nm values for each inhibitor were plotted against the log 10 inhibitor concentration, and IC50 values were calculated using a nonlinear least-square curve fitting program in Prism 5.
In general terms: Tetrazolium dyes change colour on reduction, which living cells bring about.

A further test concerns HT29. As to the kind of experiment: MTS assay (cytotoxicity), growth inhibition of HT29. The settings on record: Homo sapiens, HT-29, 120 h. The procedure:
as §1

In another test the test system is SKBR-3. As to the kind of experiment: MTS assay (cytotoxicity), growth inhibition of SKBR-3. As to conditions: Homo sapiens, SK-BR-3, 120 h. How it is done: as §1
Another test has as its system BT474. In words: MTS assay (cytotoxicity), growth inhibition of BT474. As to conditions: Homo sapiens, BT-474, 120 h. How it is done: as §1
Setting [2] is: SK-BR-3, Table 1, series I, means of three independent experiments.
Where [3] appears, read: Table 4, 5 days, means of three independent experiments, read-out: MCF-7 IC50 (growth inhibition).
Where [4] appears, read: Table 4, 5 days, means of three independent experiments, read-out: HT29 IC50 (growth inhibition).
Setting [5] is: Table 4, 5 days, means of three independent experiments, read-out: SKBR-3 IC50 (growth inhibition).
[6] abbreviates: Table 4, 5 days, means of three independent experiments, read-out: BT474 IC50 (growth inhibition).
Setting [7] is: Table 5, series III, 5 days, read-out: Growth Inhibition (IC50) MCF-7.
Setting [8] is: Table 5, series III, 5 days, read-out: Growth Inhibition (IC50) HT29.
Where [9] appears, read: Table 5, series III, 5 days, read-out: Growth Inhibition (IC50) SKBR-3.
The mark [10] stands for this setting: Table 5, series III, 5 days, read-out: Growth Inhibition (IC50) BT474.

Regarding `COc1c(C)cnc(CN2CC(=O)N(CCCN3CCOCC3)c3c(Cl)nc(N)nc32)c1C` [Example I-10], the half-maximal inhibitory concentration (IC50) is 1550 nM in test [1] (setting [2]); 2590 nM in the test on MCF-7 (setting [3]); 2950 nM in the test with HT29 (setting [4]); 1110 nM in the test with SKBR-3 (setting [5]); 1810 nM in the test on BT474 (setting [6]).

Turning to `COC(=O)c1ccc(/C=C2\C(=O)N(Cc3ncc(C)c(OC)c3C)c3nc(N)nc(Cl)c32)[nH]1` [III-5, 5-[2-Amino-4-chloro-7-(4-methoxy-3,5-dimethyl-pyridin-2-ylmethyl)-6-oxo-6,7-dihydro-pyrrolo[2,3-d]pyrimidin-(5Z)-ylidenemethyl]-1H-pyrrole-2-carboxylic acid methyl ester], the half-inhibitory concentration (IC50) in test [1] (SK-BR-3, Table 5, series III) amounted to 480 nM; in the test with MCF-7 (setting [7]), 960 nM; with HT29 (setting [8]), 560 nM; in the test with SKBR-3 (setting [9]) it was 230 nM; in the test on BT474 (setting [10]), 210 nM.

For the molecule `COc1c(C)cnc(CN2C(=O)/C(=C\c3cc(C(=O)NCCN4CCCC4)c[nH]3)c3c(Cl)nc(N)nc32)c1C` [III-26, (Z)-5-((2-Amino-4-chloro-7-((4-methoxy-3,5-dimethylpyridin-2-yl)methyl)-6-oxo-6,7-dihydro-5H-pyrrolo[2,3-d]pyrimidin-5-ylidene)methyl)-N-(2-(pyrrolidin-1-yl)ethyl)-1H-pyrrole-3-carboxamide], the IC50 is 5 nM in test [1] (SK-BR-3, Table 5, series III); 30 nM in the test with MCF-7 (setting [7]); 0.6 nM in the test on HT29 (setting [8]); under 0.2 nM in the test with SKBR-3 (setting [9]); 1 nM in the test on BT474 (setting [10]).

In the case of `COc1c(C)cnc(CN2C(=O)/C(=C\c3[nH]ncc3Br)c3c(Cl)nc(N)nc32)c1C` [III-10, (Z)-2-Amino-5-((4-bromo-1H-pyrazol-5-yl)methylene)-4-chloro-7-((4-methoxy-3,5-dimethylpyridin-2-yl)methyl)-5H-pyrrolo[2,3-d]pyrimidin-6(7H)-one], the IC50 is 280 nM in test [1] (SK-BR-3, Table 5, series III); 1270 nM in the test with MCF-7 (setting [7]); 480 nM with HT29 (setting [8]); 170 nM in the test with SKBR-3 (setting [9]); 320 nM with BT474 (setting [10]).

As for `COc1c(C)cnc(CN2C(=O)/C(=C\c3cc(C(C)(C)C)n[nH]3)c3c(Cl)nc(N)nc32)c1C` [III-52, (Z)-2-Amino-5-((3-tert-butyl-1H-pyrazol-5-yl)methylene)-4-chloro-7-((4-methoxy-3,5-dimethylpyridin-2-yl)methyl)-5H-pyrrolo[2,3-d]pyrimidin-6(7H)-one], the IC50 was 60 nM in test [1] (SK-BR-3, Table 5, series III); 190 nM in the test with MCF-7 (setting [7]); 240 nM in the test on HT29 (setting [8]); 140 nM in the test with SKBR-3 (setting [9]); 410 nM in the test with BT474 (setting [10]).

As for `COc1c(C)cnc(CN2CC(=O)N(CCN3CCCC3)c3c(Cl)nc(N)nc32)c1C` [Example I-7], the IC50 in test [1] (setting [2]) worked out at 510 nM; with MCF-7 (setting [3]) it was 1320 nM; in the test with HT29 (setting [4]), 1080 nM; in the test with SKBR-3 (setting [5]), 300 nM; with BT474 (setting [6]), 520 nM.

For the molecule `COc1c(C)cnc(CN2C(=O)/C(=C\c3nc(NC(=O)C4CCOCC4)c[nH]3)c3c(Cl)nc(N)nc32)c1C` [III-75, (Z)-N-(2-((2-Amino-4-chloro-7-((4-methoxy-3,5-dimethylpyridin-2-yl)methyl)-6-oxo-6,7-dihydro-5H-pyrrolo[2,3-d]pyrimidin-5-ylidene)methyl)-1H-imidazol-4-yl)tetrahydro-2H-pyran-4-carboxamide], the IC50 in test [1] (SK-BR-3, Table 5, series III) worked out at 90 nM; in the test on MCF-7 (setting [7]), 160 nM; with HT29 (setting [8]) it was 50 nM; in the test with SKBR-3 (setting [9]), 7 nM; in the test with BT474 (setting [10]) it was 60 nM.

Consider `COc1c(C)cnc(CN2C(=O)/C(=C\c3cc(C(=O)NCCNC(C)C)c[nH]3)c3c(Cl)nc(N)nc32)c1C` [III-21, (Z)-5-((2-Amino-4-chloro-7-((4-methoxy-3,5-dimethylpyridin-2-yl)methyl)-6-oxo-6,7-dihydro-5H-pyrrolo[2,3-d]pyrimidin-5-ylidene)methyl)-N-(2-(isopropylamino)ethyl)-1H-pyrrole-3-carboxamide], for which the IC50 in test [1] (SK-BR-3, Table 5, series III) is 60 nM; with MCF-7 (setting [7]), 150 nM; in the test with HT29 (setting [8]), 60 nM; with SKBR-3 (setting [9]) it was 4 nM; with BT474 (setting [10]) it was 10 nM.

Regarding `COc1c(C)cnc(CN2C(=O)/C(=C\c3cc(C(=O)NCC(O)CO)c[nH]3)c3c(Cl)nc(N)nc32)c1C` (stereo not shown) [III-22, (Z)-5-((2-Amino-4-chloro-7-((4-methoxy-3,5-dimethylpyridin-2-yl)methyl)-6-oxo-6,7-dihydro-5H-pyrrolo[2,3-d]pyrimidin-5-ylidene)methyl)-N-(2,3-dihydroxypropyl)-1H-pyrrole-3-carboxamide], the IC50 came out at 80 nM in test [1] (SK-BR-3, Table 5, series III); 400 nM in the test with MCF-7 (setting [7]); 360 nM in the test with HT29 (setting [8]); 80 nM in the test with SKBR-3 (setting [9]); 110 nM with BT474 (setting [10]).

With `COc1c(C)cnc(CN2C(=O)/C(=C\c3[nH]c(C)cc3C)c3c(Cl)nc(N)nc32)c1C` [III-2, 2-Amino-4-chloro-5-[1-(3,5-dimethyl-1H-pyrrol-2-yl)-meth-(Z)-ylidene]-7-(4-methoxy-3,5-dimethyl-pyridin-2-ylmethyl)-5,7-dihydro-pyrrolo[2,3-d]pyrimidin-6-one], the half-maximal inhibitory concentration (IC50) in test [1] (SK-BR-3, Table 5, series III) was found to be 1670 nM; with MCF-7 (setting [7]), 3650 nM; in the test on HT29 (setting [8]) it was 1210 nM; with SKBR-3 (setting [9]) it was 960 nM; with BT474 (setting [10]), 1020 nM.

Regarding `COc1c(C)cnc(CN2C(=O)/C(=C\c3cc(Br)c[nH]3)c3c(Cl)nc(N)nc32)c1C` [III-11, (Z)-2-Amino-5-((4-bromo-1H-pyrrol-2-yl)methylene)-4-chloro-7-((4-methoxy-3,5-dimethylpyridin-2-yl)methyl)-5H-pyrrolo[2,3-d]pyrimidin-6(7H)-one], the IC50 was determined as 190 nM in test [1] (SK-BR-3, Table 5, series III); 1380 nM with MCF-7 (setting [7]); 380 nM with HT29 (setting [8]); 140 nM with SKBR-3 (setting [9]); 430 nM in the test with BT474 (setting [10]).

Take `COc1c(C)cnc(CN2C(=O)/C(=C\c3[nH]cnc3C)c3c(Cl)nc(N)nc32)c1C` [III-4, 2-Amino-4-chloro-7-(4-methoxy-3,5-dimethyl-pyridin-2-ylmethyl)-5-[1-(5-methyl-3H-imidazol-4-yl)-meth-(Z)-ylidene]-5,7-dihydro-pyrrolo[2,3-d]pyrimidin-6-one]: the IC50 is 340 nM in test [1] (SK-BR-3, Table 5, series III); 530 nM in the test on MCF-7 (setting [7]); 120 nM in the test with HT29 (setting [8]); 160 nM with SKBR-3 (setting [9]); 190 nM in the test on BT474 (setting [10]).

Consider `COc1c(C)cnc(CN2C(=O)/C(=C\c3cc(C(=O)NCCCN4CCOCC4)c[nH]3)c3c(Cl)nc(N)nc32)c1C` [III-34, (Z)-5-((2-Amino-4-chloro-7-((4-methoxy-3,5-dimethylpyridin-2-yl)methyl)-6-oxo-6,7-dihydro-5H-pyrrolo[2,3-d]pyrimidin-5-ylidene)methyl)-N-(3-morpholinopropyl)-1H-pyrrole-3-carboxamide], for which the concentration for half-maximal inhibition (IC50) in test [1] (SK-BR-3, Table 5, series III) amounted to 20 nM; with MCF-7 (setting [7]) it was 170 nM; with HT29 (setting [8]), 20 nM; in the test with SKBR-3 (setting [9]), 10 nM; in the test with BT474 (setting [10]), 40 nM.

With `CCN(CC)CCNC(=O)c1c[nH]c(/C=C2\C(=O)N(Cc3ncc(C)c(OC)c3C)c3nc(N)nc(Cl)c32)c1` [III-19, (Z)-5-((2-Amino-4-chloro-7-((4-methoxy-3,5-dimethylpyridin-2-yl)methyl)-6-oxo-6,7-dihydro-5H-pyrrolo[2,3-d]pyrimidin-5-ylidene)methyl)-N-(2-(diethylamino)ethyl)-1H-pyrrole-3-carboxamide], the IC50 in test [1] (SK-BR-3, Table 5, series III) came to 10 nM; with MCF-7 (setting [7]) it was 70 nM; in the test with HT29 (setting [8]), 10 nM; in the test on SKBR-3 (setting [9]) it was 1 nM; in the test with BT474 (setting [10]), 0.7 nM.
